The source of these data is ChEMBL document CHEMBL1126751, “Studies on quinazolines. 5. 2,3-dihydroimidazo[1,2-c]quinazoline derivatives: a novel class of potent and selective alpha 1-adrenoceptor antagonists and antihypertensive agents” (J Med Chem, 1993).

Test [1] has as its system Rattus norvegicus. As to the kind of experiment: Blood pressure lowering activity in spontaneously hypertensive rats (SHR) after 6 hours of administration (iv) of dose of 1.0 mg/kg […]. It counts as functional.
In test [2] the target is T1, Adrenergic receptor alpha-1 (Rattus norvegicus, UniProt P15823+P23944+P43140).
T1 sequence (P15823 whole entry): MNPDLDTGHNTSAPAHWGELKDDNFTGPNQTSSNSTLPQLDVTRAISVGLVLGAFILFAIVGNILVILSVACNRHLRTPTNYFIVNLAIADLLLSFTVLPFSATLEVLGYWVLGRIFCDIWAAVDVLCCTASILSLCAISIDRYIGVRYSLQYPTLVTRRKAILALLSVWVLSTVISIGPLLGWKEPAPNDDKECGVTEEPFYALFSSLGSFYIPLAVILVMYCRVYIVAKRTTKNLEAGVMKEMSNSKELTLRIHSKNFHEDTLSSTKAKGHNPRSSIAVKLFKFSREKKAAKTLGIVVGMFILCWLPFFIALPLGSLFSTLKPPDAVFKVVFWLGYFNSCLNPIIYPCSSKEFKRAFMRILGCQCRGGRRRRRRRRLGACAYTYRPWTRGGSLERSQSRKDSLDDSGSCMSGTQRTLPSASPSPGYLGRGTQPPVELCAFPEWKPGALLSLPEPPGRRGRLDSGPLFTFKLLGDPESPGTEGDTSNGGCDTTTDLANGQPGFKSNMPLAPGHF
T1 sequence (P23944 whole entry): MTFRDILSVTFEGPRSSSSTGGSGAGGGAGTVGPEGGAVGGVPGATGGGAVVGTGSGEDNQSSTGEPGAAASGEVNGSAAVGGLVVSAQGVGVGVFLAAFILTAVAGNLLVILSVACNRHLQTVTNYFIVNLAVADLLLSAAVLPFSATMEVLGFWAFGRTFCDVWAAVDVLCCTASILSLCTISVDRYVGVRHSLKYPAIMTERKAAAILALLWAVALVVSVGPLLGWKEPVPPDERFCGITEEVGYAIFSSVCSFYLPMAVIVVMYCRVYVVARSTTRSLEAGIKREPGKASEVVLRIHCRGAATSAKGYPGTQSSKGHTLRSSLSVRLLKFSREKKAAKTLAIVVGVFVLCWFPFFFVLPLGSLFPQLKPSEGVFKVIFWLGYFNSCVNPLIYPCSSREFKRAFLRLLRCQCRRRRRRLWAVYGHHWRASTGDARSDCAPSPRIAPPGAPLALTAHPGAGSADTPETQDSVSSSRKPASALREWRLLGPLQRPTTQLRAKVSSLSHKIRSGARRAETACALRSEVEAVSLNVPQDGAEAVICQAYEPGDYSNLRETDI
T1 sequence (P43140 whole entry): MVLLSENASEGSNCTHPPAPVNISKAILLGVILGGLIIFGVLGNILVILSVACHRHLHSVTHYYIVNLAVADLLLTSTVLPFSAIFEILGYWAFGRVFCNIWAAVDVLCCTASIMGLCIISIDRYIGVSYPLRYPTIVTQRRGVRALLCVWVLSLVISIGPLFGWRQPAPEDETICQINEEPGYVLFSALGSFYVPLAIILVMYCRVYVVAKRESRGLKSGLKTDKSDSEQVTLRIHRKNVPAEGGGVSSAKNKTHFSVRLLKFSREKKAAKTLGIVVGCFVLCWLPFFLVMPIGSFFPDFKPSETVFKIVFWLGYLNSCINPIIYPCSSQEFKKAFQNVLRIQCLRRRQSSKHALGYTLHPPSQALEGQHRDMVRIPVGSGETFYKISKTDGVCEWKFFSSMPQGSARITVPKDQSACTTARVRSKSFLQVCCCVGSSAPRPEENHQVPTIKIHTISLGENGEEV
Briefly: Binding affinity against alpha-1 adrenergic receptor by measuring displacement of [3H]prazosin from rat brain cortex membranes (in vitro). Type of test: cell membranes, Membrane. On the technique in general: In a radioligand displacement assay an active substance lowers the binding of a labelled ligand.

For test [3], the system named is Rattus norvegicus. Briefly: Blood pressure lowering activity in spontaneously hypertensive rats (SHR) after 1 hour of administration (iv) of dose of 1.0 mg/kg […]. It counts as functional.
For test [4], the target named is T1, Adrenergic receptor alpha-1. Briefly: Alpha-1 antagonistic activity against phenylephrine in rat aorta. Type of test: functional, tissue-based.
Test [5] concerns Rattus norvegicus. Briefly: Blood pressure lowering activity in spontaneously hypertensive rats (SHR) after 1 hour of administration (iv) of dose of 0.5 mg/kg […]. It counts as functional.
Test [6] deals with Rattus norvegicus. As to the kind of experiment: Blood pressure lowering activity in spontaneously hypertensive rats (SHR) after 6 hours of administration (iv) of dose of 0.5 mg/kg […]. It counts as functional.
Test [7] concerns the target T2, Adrenergic receptor alpha-2 (Rattus norvegicus, UniProt P22086+P19328+P22909).
T2 sequence (P22086 whole entry): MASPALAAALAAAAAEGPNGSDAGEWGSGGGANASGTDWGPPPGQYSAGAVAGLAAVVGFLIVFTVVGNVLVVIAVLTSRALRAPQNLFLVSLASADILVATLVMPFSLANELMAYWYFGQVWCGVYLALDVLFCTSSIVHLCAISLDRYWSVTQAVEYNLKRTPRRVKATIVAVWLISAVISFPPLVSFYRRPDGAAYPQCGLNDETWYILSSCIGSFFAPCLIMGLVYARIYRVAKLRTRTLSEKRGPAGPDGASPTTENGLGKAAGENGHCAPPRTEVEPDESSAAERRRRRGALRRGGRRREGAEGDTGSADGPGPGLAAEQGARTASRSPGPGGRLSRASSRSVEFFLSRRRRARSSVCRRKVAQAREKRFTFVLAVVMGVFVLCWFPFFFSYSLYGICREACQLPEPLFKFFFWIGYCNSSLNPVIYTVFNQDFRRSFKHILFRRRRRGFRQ
T2 sequence (P19328 whole entry): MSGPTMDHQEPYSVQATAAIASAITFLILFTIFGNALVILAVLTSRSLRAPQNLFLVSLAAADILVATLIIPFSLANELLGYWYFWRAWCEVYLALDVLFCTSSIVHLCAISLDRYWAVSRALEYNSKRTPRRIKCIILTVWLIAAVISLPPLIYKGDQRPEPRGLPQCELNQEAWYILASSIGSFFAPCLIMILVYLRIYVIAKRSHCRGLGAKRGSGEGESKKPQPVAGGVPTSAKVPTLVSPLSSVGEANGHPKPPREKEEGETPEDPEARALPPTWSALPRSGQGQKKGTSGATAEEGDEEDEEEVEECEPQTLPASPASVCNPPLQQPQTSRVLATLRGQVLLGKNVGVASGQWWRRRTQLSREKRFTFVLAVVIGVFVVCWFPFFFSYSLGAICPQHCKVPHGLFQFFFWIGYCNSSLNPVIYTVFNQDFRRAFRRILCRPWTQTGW
T2 sequence (P22909 whole entry): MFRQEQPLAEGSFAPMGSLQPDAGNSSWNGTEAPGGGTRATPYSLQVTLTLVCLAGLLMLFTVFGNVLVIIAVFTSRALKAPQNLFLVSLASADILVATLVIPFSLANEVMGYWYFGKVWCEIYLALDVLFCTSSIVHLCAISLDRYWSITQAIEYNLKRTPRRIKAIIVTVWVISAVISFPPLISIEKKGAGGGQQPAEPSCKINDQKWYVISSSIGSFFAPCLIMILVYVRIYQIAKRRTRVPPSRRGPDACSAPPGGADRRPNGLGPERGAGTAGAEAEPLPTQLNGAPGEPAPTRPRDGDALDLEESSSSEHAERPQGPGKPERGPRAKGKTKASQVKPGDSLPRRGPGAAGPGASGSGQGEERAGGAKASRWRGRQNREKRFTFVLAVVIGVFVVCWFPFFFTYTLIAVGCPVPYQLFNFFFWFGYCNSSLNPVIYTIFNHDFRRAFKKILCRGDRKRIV
Briefly: Binding affinity against alpha-2 adrenergic receptor by measuring displacement of [3H]clonidine from rat brain cortex membranes (in vitro). Type of test: cell membranes, Membrane.

In the case of `CN1C(=O)N2C(=NCC2CN2CCN(c3ccccc3)CC2)c2ccccc21` (stereo not drawn), the figures for the MBP in test [1] and in test [3] were -20 mmHg and -23.3 mmHg, respectively. In addition, the Ki (as a rule, the equilibrium dissociation constant of an inhibitor or competing ligand from its target) in test [2] is 15 nM.
For the molecule `COc1ccccc1N1CCN(CCn2c(=O)[nH]c3ccccc3c2=O)CC1`, in test [4], the pA2 (as a rule, a measure of antagonist potency on a negative log scale) is given as 9.63. For the same molecule, the figures for the MBP in test [5] and in test [6] were -33.9 mmHg and -31.7 mmHg, respectively. Further, the results for the Ki in test [2] and in test [7] were 0.25 nM and 1599 nM, respectively.
